According to patent US20250026769A1, “PAPD5 INHIBITORS AND METHODS OF USE THEREOF” (The Children's Medical Center Corporation, priority 2021, published 2025):
pIC50: −log10 of the molar value. Read-outs that look alike come from different tables or passages of the source.

How the values were obtained:
[1] = system: TERC 3′ end processing in DC patient iPSCs; assay: TERC 3′ end processing by RACE in DC patient / PARN-mutant iPSCs; format: cell-based, human; conditions: for minimal effective concentration: Homo sapiens, iPSC, patient iPSCs, concentration class at which activity is seen, read-out: iPSC-based RACE activity
In short: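 Activity binned by concentration giving effect in DC patient iPSCs: "+" at 1 μM, "++" above 1 nM and below 1 μM, "+++" below 1 nM; ND, not determined.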

[2] = system: telomere length in DC patient iPSCs; assay: telomere length / telomere elongation in DC patient iPSCs; format: cell-based, human; conditions: for minimal effective concentration: Homo sapiens, iPSC, patient iPSCs, concentration class at which activity is seen, read-out: iPSC-based Telomere length
Method: Compound 266A had activity ˜2-logs higher in the in vitro RNA oligoadenylation assay compared to the parental compound cmpd. 1, approximating the activity of RG7834 (FIG. 7). […] 1. Compounds 295A and 296A had activity 2-3 logs higher in DC patient iPSCs, showing TERC maturation at 1 nM, similar to RG7834 (FIG. 6). […] Referring to Table 1D, “+” refers to activity at 1 μM, “++” refers to activity above 1 nM and below 1 μM, and “+++” refers to activity at <1 nM, “ND” refers to not determined.

rPAPD5 = biological target: T1, rPAPD5 (Homo sapiens, UniProt Q8NDF8); assay: differential scanning fluorimetry (DSF) binding and stabilization of rPAPD5; conditions: for ΔTm at 1 µM: 1 μM test compound (Table 2a), read-out: ΔTm at 1 μM; for ΔTm at 100 µM: read-out: ΔTm at 100 μM
T1 construct: made in house
In short: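 Compound-induced shifts in rPAPD5 melting temperature were determined by thermal shift (DSF). Protein at […] was mixed with a non-extendable ATP analog […] in Tris-HCl (25 mM), MgCl2 (5 mM) and KCl (50 mM), with SYPRO orange at 1:5000. Curves were averages of three measurements analyzed with Thermal Shift software, and ΔTm was referenced to DMSO.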

[3] = system: hepatitis B surface antigen (HBSAg) from HepG2.2.15 cells, a hepatitis B virus-expressing cell line; assay: HBsAg ELISA in supernatant of HepG2.2.15 cells; format: cell-based; conditions: HepG2.2.15, 96 h
In short: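 HepG2.2.15 cells plated at 50,000/well, then exposed the next day to 3-fold compound dilutions from 100 μM to 333 pM, with DMSO vehicle as control. After 4 days at 37 °C, HBsAg in the supernatant was measured by ELISA. IC50 obtained by nonlinear fitting of averaged replicates.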

[4] = system: TERC 3′ ends in human CD19+ cells recovered from mice xenotransplanted with HSPCs; assay: TERC 3′ end processing in vivo in human CD19+ cells after xenotransplantation into NBSGW mice; design: species or system immunodeficient NBSGW mice with human HSPCs; conditions: for aberrant TERC oligo-adenylation in xenotransplanted PARN-deficient human blood cells: oral, RACE amplicon sequencing
From the text: (§1) Example 168—Restoration of TERC 3′ end processing in vivo in human blood cells after xenotransplantation into immunodeficient mice. To determine the efficacy of orally administered exemplified compounds in primary human HSPCs and blood cells in restoring TERC processing in vivo, highly-efficient CRISPR-Cas9 ribonucleoprotein transduction was employed to disrupt the PARN gene in primary human CD34+ HSPCs or the control locus AAVS1. These genome-edited human HSPCs were xenotransplanted into immunodeficient NOD,B6.SCID Il2rg−/− KitW4l/W41 (NBSGW) mice, which engraft human HSPCs without exposure to radiation or chemotherapy. Six to ten weeks after xenotransplantation, exemplified compounds were administered for 4 to 7 days alongside controls. Thereafter, human hematopoietic cells were recovered from mouse bone marrow, and engraftment was analyzed by flow cytometry. Engrafted human hematopoietic cells were sorted for lineage markers, and CD19+ cells were used for analysis of restoration of TERC 3′ end processing by RNA-ligation mediated 3′ RACE.

[5] = system: engraftment of CD45+, CD19+, CD34+ human blood cells; assay: engraftment of human blood cells in xenotransplanted mice by flow cytometry; format: in vivo, immunodeficient NBSGW mice with human HSPCs
From the text: as §1

[6] = system: TERC 3′ end processing in primary CD34+ human hematopoietic stem and progenitor cells (HSPCs); assay: TERC 3′ end processing (RACE) in CRISPR/Cas9-engineered PARN-deficient primary CD34+ HSPCs; format: cell-based; conditions: for TERC 3′ end processing by RACE at 100 nM: day 5 (FIG. 40B); for TERC 3′ end processing by RACE at 1 μM: day 5 (FIG. 40A)
From the text: Example 167—Restoration of TERC 3′ end processing in primary CD34+ human hematopoietic stem and progenitor cells (HSPCs). To determine the efficacy of exemplified compounds in a disease-relevant stem cell population, we employed a highly-efficient CRISPR-Cas9 ribonucleoprotein transduction strategy to disrupt the PARN gene in primary human CD34+ hematopoietic stem and progenitor cells (HSPCs), or the control locus AAVS1. FIGS. 40A and 40B show extended TERC forms in CRISPR-Cas9 engineered HSPCs deficient in PARN.

[7] = 10 μM test compound (Table 2a), read-out: ΔTm at 10 μM
[8] = 10 μM test compound, shift vs DMSO control, read-out: ΔTm (Table 2, starred: the compound was tested at 10 μM)
[9] = 32 mg/kg/dose every other day for 4 days
[10] = 32 mg/kg/dose twice daily for 11 doses, with 250 μM in drinking water

T1 sequence (Q8NDF8 68-698 isoform Q8NDF8-5 limits assumed): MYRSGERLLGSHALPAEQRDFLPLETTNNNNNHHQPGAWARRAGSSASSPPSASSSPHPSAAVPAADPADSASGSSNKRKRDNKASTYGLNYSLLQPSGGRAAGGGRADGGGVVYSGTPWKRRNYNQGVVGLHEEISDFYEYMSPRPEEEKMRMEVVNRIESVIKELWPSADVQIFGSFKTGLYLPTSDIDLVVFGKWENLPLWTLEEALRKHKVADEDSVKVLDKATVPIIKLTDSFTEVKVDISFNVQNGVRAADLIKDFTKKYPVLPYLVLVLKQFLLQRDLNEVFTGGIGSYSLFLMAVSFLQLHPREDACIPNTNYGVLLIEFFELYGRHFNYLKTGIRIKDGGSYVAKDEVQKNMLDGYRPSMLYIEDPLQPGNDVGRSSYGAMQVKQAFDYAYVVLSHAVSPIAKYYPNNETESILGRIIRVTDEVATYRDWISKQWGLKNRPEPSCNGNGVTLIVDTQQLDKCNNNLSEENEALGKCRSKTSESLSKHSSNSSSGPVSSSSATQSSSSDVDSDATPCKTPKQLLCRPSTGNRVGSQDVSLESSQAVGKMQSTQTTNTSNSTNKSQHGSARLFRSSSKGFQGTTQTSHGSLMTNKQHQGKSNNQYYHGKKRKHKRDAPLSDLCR

SMILES | minimal effective concentration [1] [µM] | minimal effective concentration [2] [µM] | ΔTm at 1 µM (rPAPD5) [°C] | ΔTm at 10 µM (rPAPD5; [7]) [°C] | ΔTm at 10 µM (rPAPD5; [8]) [°C] | pIC50 [3] | TERC 3′ end processing by RACE at 100 nM [6] | TERC 3′ end processing by RACE at 1 μM [6] | other results
O=C(O)c1cc(Cl)ccc1Nc1c(C2=CCC(F)(F)CC2)cnc2ccc(Cl)cc12 [Compound 344A, 5-chloro-2-[[6-chloro-3-(4,4-difluorocyclohexen-1-yl)-4-quinolyl]amino]benzoic acid] | < 0.001 | < 0.001 | > 5 | > 5 | > 5 | 6.22 | – | – | TERC 3′ ends in human CD19+ cells (RACE) ([4]; 32 mg/kg/dose every other day for 4 days (FIG. 41B)): maturation of TERC 3′ ends; aberrant TERC oligo-adenylation in xenotransplanted PARN-deficient human blood cells [4, 9]: significantly reversed; engraftment of CD45+, CD19+, CD34+ human blood cells [5, 9]: no change in engraftment
O=C(O)c1cc(Cl)ccc1Nc1c(N2CCC(F)CC2)cnc2ccc(Cl)cc12 [Compound 392A, 5-chloro-2-[[6-chloro-3-(4-fluoro-1-piperidyl)-4-quinolyl]amino]benzoic acid] | < 0.001 | < 0.001 | > 5 | > 5 | > 5 | 7.02 | maturation of TERC 3′ end processing | maturation of TERC 3′ end processing | TERC 3′ ends in human CD19+ cells (RACE) ([4]; 32 mg/kg/dose twice daily for 11 doses (FIG. 41D)): maturation of TERC 3′ ends; engraftment of CD45+, CD19+, CD34+ human blood cells ([5]; 32 mg/kg/dose twice daily for 11 doses): no change in engraftment
O=C(O)c1cc(Cl)ccc1Nc1c(N2CCOCC2)cnc2ccc(Cl)cc12 [Compound 339A, 5-chloro-2-[(6-chloro-3-morpholino-4-quinolyl)amino]benzoic acid] | < 0.001 | < 0.001 | > 5 | > 5 | – | 7.12 | maturation of TERC 3′ end processing | maturation of TERC 3′ end processing | ΔTm at 100 µM (rPAPD5; 100 μM test compound, shift vs DMSO control): > 5 °C; TERC 3′ ends in human CD19+ cells (RACE) ([4]; 1 mM in drinking water for 7 days (FIG. 41C)): maturation of TERC 3′ ends; engraftment of CD45+, CD19+, CD34+ human blood cells ([5]; 1 mM in drinking water for 7 days): no change in engraftment
O=C(O)c1cc(Cl)ccc1Nc1c(C2CCOCC2)cnc2ccc(Cl)cc12 [Compound 296A, 5-chloro-2-[(6-chloro-3-tetrahydropyran-4-yl-4-quinolyl)amino]benzoic acid] | – | – | – | – | – | 8.30 | maturation of TERC 3′ end processing | maturation of TERC 3′ end processing | concentration showing maturation of TERC 3′ end processing by RACE ([1]; DC patient iPSCs): 1 nM; concentration at which telomere elongation was observed ([2]; DC patient iPSCs, after 3-4 weeks of cell culture): 1 nM; ΔTm at 100 µM (rPAPD5): > 5 °C; TERC 3′ ends in human CD19+ cells (RACE) ([4]; 32 mg/kg/dose twice daily for 11 doses, with 250 μM in drinking water (FIG. 41A)): maturation of TERC 3′ ends; aberrant TERC oligo-adenylation in xenotransplanted PARN-deficient human blood cells [4, 10]: significantly reversed; engraftment of CD45+, CD19+, CD34+ human blood cells [5, 10]: no change in engraftment
